These results are taken from publication doi:10.1101/871186v1 (bioRxiv, 2019).

Data set [1] has as its system neurons (NeuN), astrocytes (GFAP), microglia (TMEM), lysosomes (LAMP1), early endosomes (EEA1). In kind it is in vivo. The following applies: mouse brain sections after IV Cy5-MTfp, 3D confocal.
Data set [2] in a line: Tissue distribution of intact MTfp by LCMS. It counts as in vivo, mouse (CD1).
Data set [3] relates to in vitro bovine BBB model (primary bovine brain capillary endothelial cells supported by primary rat glial cells). In words: In vitro BBB model transcytosis assay of MTf fragments and peptides. It counts as in vitro ADME.

For DSSHAFTLDELR [MTfp], the “MTFp found in the early endosomes” value in data set [1] (EEA1 marker) is “approximately 20%”. Also, the “MTFp found in the lysosomes” value in data set [1] (LAMP1 marker) turned out to be 40%. Also, in data set [2] (from 30-minute concentration), the “initial rate of transport, kidney” value is listed as 9.9 nM/min and the “initial rate of transport, liver” value is on record as 7.3 nM/min. Also, the “initial rate of transport into the brain” value in data set [2] (slope of time vs concentration, 0 and 30-minute time points, protocol of Bickel) is on record as approximately 2 nM/min. Moreover, in data set [3] (T = 120, abluminal compared to initial concentration), the “Abluminal vs. Total” value is 1.90%. Besides, in data set [3] (T = 120, measure of transcytosis efficiency), the “Abluminal vs. Luminal” value stood at 2.41%.
